Assay results from paper PMC9271048, “Probing strigolactone perception mechanisms with rationally designed small-molecule agonists stimulating germination of root parasitic weeds” (Nature Communications, 2022).
“Also recorded” adds a separate entry of the source. Where two headings read alike, the source gives them in different places.

Legend:
AtD14 = target: T1, AtD14 (Arabidopsis thaliana, UniProt Q9SQR3); assay: Competitive inhibition of AtD14 with YLG as substrate; type: biochemical
T1 construct: His tag; made in house; host or cells: E. coli BL21
T1 sequence (Q9SQR3 1-267): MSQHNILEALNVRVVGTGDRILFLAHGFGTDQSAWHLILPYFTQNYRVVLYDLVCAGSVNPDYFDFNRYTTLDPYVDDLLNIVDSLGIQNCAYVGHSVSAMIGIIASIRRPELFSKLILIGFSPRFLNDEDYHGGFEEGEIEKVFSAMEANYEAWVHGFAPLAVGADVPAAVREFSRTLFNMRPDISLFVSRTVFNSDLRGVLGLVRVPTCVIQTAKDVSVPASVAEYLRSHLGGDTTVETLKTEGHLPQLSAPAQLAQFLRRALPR
Protocol: The excitation and emission wavelengths of YLG are 480 and 520 nm, respectively. We used a fluorescence spectrophotometer (CARY Eclipse) to detect the fluorescence intensity change of YLG during the enzymatic hydrolysis assay process. All the testing compounds and YLG were dissolved in DMSO and prepared as stock solutions just before use. […] The changes of fluorescence at 520 nm of each well were recorded every 1 min for 30 min. Using the reaction mixture without adding enzyme and tested compounds as the background control. After subtracting the background hydrolysis, a linear fluorescence increase in 8 min was used for further inspection. The IC50 values were determined via fitting relative inhibition percentages with the varying concentrations of compounds in Microsoft Excel.

ShHTL7-SMAX1 interaction = assay: Yeast two-hybrid assay ShHTL7-SMAX1; type: cell-based, Striga hermonthica
Protocol: (§1) To construct plasmids for yeast two-hybrid assays, the CDS of ShHTL7 and AtD14 were cloned into yeast expression vector pBrigde to generate BD-ShHTL7 and BD-AtD14, and the CDS of ShMAX2, AtMAX2, SMAX1 were cloned into pGADT7 to make Gal4 DNA activation domain (AD) constructs, respectively. Primers used for yeast expression vector construction are listed in Supplementary Table 6. Yeast two-hybrid assays were performed using the Yeastmaker Yeast Transformation System 2 (Clontech). In brief, Yeast AH109 cells were co-transformed with specific bait and prey constructs and coated on selective growth medium SD/-Leu-Trp for 3 days at 30 °C, pick the positive constructs into liquid selective growth medium SD/-Leu-Trp shaking for 36 h at 30 °C. Washed yeast cells three times and diluted, made sure OD600 reached 2.5, then serial 10-fold dilutions of yeast cultures were spotted onto selective growth mediums that were supplemented with different concentrations of rac-GR24 and tested molecules, respectively. All yeast transformants were grown on a selective growth medium at 30 °C for 3 days.

[1] = tested on: Arabidopsis thaliana (Col-0); assay: Arabidopsis root hair assay; type: in vivo; details: Col-0 seedlings on 1/2 MS medium, 1 μM; Supplementary Fig. 15; in µm (unit assumed)
Protocol: (§2) For Arabidopsis root hair assay, Arabidopsis thaliana (Col-0) seeds were surface sterilized by using 1% NaClO solution for 60 s and 75% ethanol solution for 60 s, and then washed by sterilized distilled water five times. The sterilized seeds were sowed on 1/2 MS media (2.202 g/L Murashige and Skoog basal salts, 0.5 g/L MES, 10 g/L sucrose, and 10 g/L agar, pH 5.7) which contained indicated concentrations of compounds. 0.1% DMSO was used as a negative control. The plates were placed 4 days at 4 °C and then placed vertically under fluorescent white light (100–150 μmol m^−2 s^−1) with 16 h light and 8 h dark at 20 ± 1 °C for 15 days[17],[55]. The root hairs were imaged by OLYMPUS (U-HGLGPS), and the lengths were analyzed by ImageJ. The experiments were repeated three times. For Arabidopsis shoot branching assay: Col-0 and max4-1 seeds were used in this experiment. Seeds surface sterilization was sterilized as described above. The Arabidopsis seedlings were placed on top of the cut black microcentrifuge tubes filled with 1/2 MS. The tubes were placed 4 days at 4 °C and then moved to fluorescent white light (100–150 μmol m^−2 s^−1) with 16 h light and 8 h dark at 20 ± 1 °C for 7 days[26]. The germinated seedlings were grown on hydroponic culture solutions (containing indicated concentrations of 4a, (R)- and (S)-4a), with the solution containing 0.01% DMSO as the negative control. The solutions were renewed every week. After 4 weeks, the numbers of rosette axillaries were analyzed.
type Arabidopsis. a, Representative primary root segments of Col-0 seedlings growing on 1/2 MS
medium with or without 1 μM tested chemicals. Scale bar, […]. b, The average length of root
hair is presented as means ± SD (n = 3 biologically independent experiments).
(1 picture or pasted object on this page, not shown here)

max4-1 = assay: Arabidopsis shoot branching assay; type: in vivo, Arabidopsis thaliana; details: max4-1, 1 μM; Fig. 4c source data
Protocol: as §2

[2] = tested on: ShHTL7-ShMAX2 interaction; assay: Yeast two-hybrid assay ShHTL7-ShMAX2; type: cell-based, Striga hermonthica
Protocol: as §1

Striga hermonthica seeds = assay: S. hermonthica seed germination assay; type: in vivo; details: source data of Fig. 2d, average of 2 or 3; for EC50: Striga hermonthica, 48 h
Protocol: Two hundred mg of Striga hermonthica seeds were surface sterilized in 2% sodium hypochlorite containing 0.02% Tween-20 for 5 min, and then washed five times with sterile MilliQ water. The sterilized Striga seeds were spread on sterile glass fiber-filter papers (Whatman® GF/A, Sigma–Aldrich) in Petri dishes containing filter paper moistened with 3 mL sterile MilliQ water. The Petri dishes were incubated 6–8 days at 30 °C for preconditioning after which the seeds were dried in a laminar sterile air flow for 2 h. The germination bioassay was performed in 0.1% agarose and 0.1 ppm rac-GR24 was used as a positive control. Stocks of rac-GR24 and other compounds were prepared in acetone and diluted before use. Dried preconditioned seeds were added to the agarose containing the relevant compound, which was subsequently divided over three wells of a 12-well Cell Culture Treated Plates (Fisher Scientific, Landsmeer, the Netherlands). The plates were sealed and incubated in the dark at 30 °C for 2 days. The Striga germination rate in % (GR%) was calculated for each replicate using the formula: GR% = (Ngs/Nts) × 100, where Ngs is the number of germinated seeds per well and Nts is the total number of seeds per well. EC50 values of the compounds were calculated using http://www.ic50.tk/index.html.

[3] = tested on: ShHTL7-AtMAX2 interaction; assay: Yeast two-hybrid assay ShHTL7-AtMAX2; type: cell-based, Striga hermonthica
Protocol: as §1

[4] = YLG as the substrate, read-out: Competitive AtD14 inhibitory activity IC50

| SMILES | IC50 (AtD14; [4]) [µM] | induction of ShHTL7-SMAX1 interaction (Y2H) (ShHTL7-SMAX1 interaction; 1 μM) | average length of root hair, source data average [1] | No. of axillary shoots, source data average (max4-1) | induction of ShHTL7-ShMAX2 interaction (Y2H) ([2]; 0.01 μM (10 nM)) | induction of ShHTL7-ShMAX2 interaction (Y2H) ([2]; 1 μM) | EC50 (Striga hermonthica seeds) [nM] | induction of ShHTL7-AtMAX2 interaction (Y2H) ([3]; 1 μM) | induction of ShHTL7-SMAX1 interaction (Y2H) (ShHTL7-SMAX1 interaction; 200 μM) | induction of ShHTL7-AtMAX2 interaction (Y2H) ([3]; 200 μM) | also measured |
| --- | --- | --- | --- | --- | --- | --- | --- | --- | --- | --- | --- |
| CC1=CC(OC(=O)N2CCN(C(=O)COc3ccc(Br)cc3C)CC2)OC1=O (stereo not shown) [4a] | > 100 | strongly induce the interaction | 163.912 | 3.5 | could still promote the ShHTL7-ShMAX2 interaction | strongly induce the interaction | 0.00107 | strongly induce the interaction |  |  |  |
| CC1=C[C@H](O/C=C2/C(=O)O[C@@H]3c4ccccc4C[C@H]23)OC1=O (racemic) [rac-GR24, reference compound] |  |  | 474.342 |  |  |  |  |  |  |  | IC50 (AtD14; source data of Fig. 4b and Supplementary Fig. 14, read-out: Competitive AtD14 inhibitory activity IC50, source data average): 6.54 µM; S. hermonthica germination EC50 values, source data average (Striga hermonthica seeds): 10.4655 |
| CC1=CC(CC(=O)N2CCN(C(=O)COc3ccc(Br)cc3C)CC2)OC1=O (stereo not shown) [4i] |  |  |  |  |  |  |  |  | almost no ligand-induced interactions were observed | almost no ligand-induced interactions were observed | induction of ShHTL7-ShMAX2 interaction (Y2H) ([2]; 200 μM): almost no ligand-induced interactions were observed |
| CC1=CC(OC(=O)N2CCN(C(=O)COc3ccc(Br)cc3C)CC2)CC1=O (stereo not shown) [4g] |  |  |  |  |  |  |  |  | only weak ligand-induced interactions | only weak ligand-induced interactions |  |
| CC1=C[C@H](OC(=O)N2CCN(C(=O)COc3ccc(Br)cc3C)CC2)OC1=O [(S)-4a] | > 100 | strongly induce the interaction | 211.816 | 2.6 | could still promote the ShHTL7-ShMAX2 interaction; also recorded: promoted ShHTL7-ShMAX2 interaction | strongly induce the interaction |  | strongly induce the interaction |  |  |  |
| CC1=C[C@@H](OC(=O)N2CCN(C(=O)COc3ccc(Br)cc3C)CC2)OC1=O [(R)-4a] | > 100 |  | 172.727 | 3.667 |  |  | 1.1 |  | did induce the interaction | did induce the interaction | induction of ShHTL7-SMAX1 interaction (Y2H) (ShHTL7-SMAX1 interaction; 1 and 5 μM): no ShHTL7-SMAX1 or ShHTL7-AtMAX2 interactions were detected; induction of ShHTL7-AtMAX2 interaction (Y2H) ([3]; 1 and 5 μM): no ShHTL7-SMAX1 or ShHTL7-AtMAX2 interactions were detected |
